Reference: US12492194B2, “HPK1 inhibitors” (Janssen Pharmaceutica NV, priority 2019, dated 2025)

Tests used:
full-length human Hpk1 = target: T1, full-length human Hpk1 (Homo sapiens, UniProt Q92918); assay: HPK1 kinase assay (ADP Glo Kinase Assay); assay type: biochemical; conditions: full-length human GST-Hpk1, ADP Glo, 75 μM ATP; read-out: Hpk1 biochemical (pIC50) (converted)
T1 construct: A recombinant fusion protein consisting of full-length human Hpk1; GST (N)
Protocol: Pharmacological Part HPK1 Kinase Assay
A recombinant fusion protein consisting of full-length human Hpk1 with an N-terminal Glutatione S-transferase (GST) tag was produced in a baculovirus/insect cell expression system. GST-Hpk1 protein was purified from cell lysates by glutathione sepharose affinity chromatography. Kinase inhibition was determined using the ADP Glo™ Kinase Assay kit (Promega, V9101). Test compounds were prepared by serial dilution in dimethyl sulfoxide (DMSO) and 0.1 μl of each dilution was spotted onto a 384-well white Proxiplate (Perkin Elmer, 6008289). 8 μl of kinase assay buffer (40 mM Tris pH 7.5, 2 mM dithiothreitol (DTT), 0.05% Bovine Serum Albumin, 5 mM MgCl2) containing Hpk1 protein was transferred to each well and incubated for 30-45 minutes at room temperature. The enzymatic reaction was started by adding 2 μl of kinase assay buffer containing 75 μM ATP. After 120 minutes, the reaction was stopped by adding 3 μl of ADP Glo™ reagent (Promega, V9101) and incubating 45 minutes at room temperature.

Hpk1 = Hpk1 (Homo sapiens, UniProt Q92918); assay: SLP76 phosphorylation assay (SLP76 pS376 in lysates of HEK293 cells engineered to express Hpk1 and SLP76); assay type: cell-based; conditions: HEK293 cells expressing Hpk1 and SLP76, 4 hours incubation; read-out: pSLP76 (HEK293) (pIC50) (converted)
Hpk1, sequence (Q92918 whole entry): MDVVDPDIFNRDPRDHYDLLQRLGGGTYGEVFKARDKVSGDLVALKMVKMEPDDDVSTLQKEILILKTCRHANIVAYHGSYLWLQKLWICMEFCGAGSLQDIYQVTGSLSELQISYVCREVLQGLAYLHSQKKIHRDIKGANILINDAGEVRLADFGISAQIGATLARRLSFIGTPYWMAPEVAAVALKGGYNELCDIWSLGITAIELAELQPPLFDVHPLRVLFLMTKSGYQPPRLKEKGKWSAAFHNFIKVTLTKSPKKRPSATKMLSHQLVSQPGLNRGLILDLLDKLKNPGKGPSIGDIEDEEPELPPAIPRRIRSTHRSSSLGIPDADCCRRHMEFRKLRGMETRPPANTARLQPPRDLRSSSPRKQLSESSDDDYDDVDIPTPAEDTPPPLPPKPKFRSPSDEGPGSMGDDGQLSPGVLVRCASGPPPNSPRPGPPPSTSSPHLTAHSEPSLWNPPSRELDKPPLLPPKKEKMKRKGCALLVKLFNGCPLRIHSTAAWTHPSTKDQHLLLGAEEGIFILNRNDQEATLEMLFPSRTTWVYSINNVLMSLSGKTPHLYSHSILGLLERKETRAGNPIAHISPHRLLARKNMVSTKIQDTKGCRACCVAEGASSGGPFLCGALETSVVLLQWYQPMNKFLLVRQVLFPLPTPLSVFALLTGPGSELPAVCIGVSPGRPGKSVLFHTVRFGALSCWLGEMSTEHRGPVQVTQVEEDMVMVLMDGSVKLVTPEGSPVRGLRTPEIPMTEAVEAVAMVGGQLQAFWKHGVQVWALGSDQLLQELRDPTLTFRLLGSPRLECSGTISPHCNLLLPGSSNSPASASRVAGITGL
Protocol: SLP76 Phosphorylation Assay
Hpk1 inhibition in cells was determined by detection of SLP76 phosphorylation at S376 in lysates from HEK293 cells engineered to express Hpk1 and SLP76. Serial dilutions of test compounds were prepared in cell culture medium and 20 μl was transferred into each well of a 96-well plate containing HEK293 cells in 180 μl of culture medium. After incubation for 4 hours at 37° C./5% CO2, the culture medium was removed, plates were put on ice and cells washed with cold Minimal Essential Medium before lysing in 90 μl of cold Mammalian Protein Extraction Reagent (Thermo Scientific, 78501) for 30 minutes on ice. The cell lysates were transferred to another 96-well plate, centrifuged 10 minutes at 3000 rcf (4° C.) and 30 μl transferred to a 96-well High-bind plate (MSD, L15XB-3). After coating overnight at 4° C., the cell lysate was removed, wells were washed with base buffer (TBS, 0.2% Tween-20), and blocking solution (base buffer containing 3% MSD blocker A) was added to each well for 1 hour at room temperature. The blocking solution was removed, the wells were washed with base buffer, and detection antibody (SLP76 pS376) was added in 25 μl base buffer containing 1% MSD blocker A to each well. After a 2 h incubation at room temperature, the detection antibody was removed, wells were washed four times with base buffer, 25 μl SULFO-TAG labeled goat anti-rabbit secondary antibody (MSD, R32AB-1) in base buffer containing 1% MSD blocker A was added to each well and left for 1 hour at room temperature. Wells were washed 4 times with base buffer, 150 μl Read Buffer T was added to each well, and the plates were read in a Mesoscale plate reader (MSD). IC50 values were determined by curve-fitting the electrochemiluminescent signals obtained from the lysates of HEK293 cells expressing Hpk1 and SLP76 treated with test compounds at various concentrations minus the signal obtained from HEK293 cells expressing SLP76 only.

T1 sequence (Q92918 whole entry, the tested form may be a part): as the sequence (Q92918 whole entry) above

SMILES	IC50 (full-length human Hpk1) [nM]	IC50 (Hpk1) [nM]
Nc1ncc(-c2ccc(C3CCOCC3)c([C@@H]3CCCN3)c2)cc1-c1ccnc(C(F)(F)F)c1 [Co. 63]	58.9	5370
COc1cc(-c2cc(-c3ccc(C4CCOCC4)c(CN(C)C)c3)cnc2N)ccn1 [Co. 71]	41.7	2040
CN(Cc1cc(-c2cnc(N)c(-c3ccncc3)c2)ccc1C1CCOCC1)C1CC1 [Co. 106]	178	7410
CN(C)Cc1cc(-c2cnc(N)c(-c3ccnc(NCCO)c3)c2)ccc1C1CCOCC1 [Co. 74]	56.2	1860
Nc1ncc(-c2ccc(C3CCOCC3)c(CN3CCC(F)(F)C3)c2)cc1-c1ccncc1 [Co. 107]	832	
Nc1ncc(-c2ccc(C3CCOCC3)c([C@H]3C[S@@+]([O-])CCN3)c2)cc1-c1ccnc(F)c1 (single isomer, unassigned) [Compound 15a]	9330	> 10000
Nc1ncc(-c2ccc(C3CCOCC3)c(C3CCCN3)c2)cc1-c1cc[n+]([O-])cc1 (stereo not drawn) [Co. 66]	85.1	> 10000
Nc1ncc(-c2ccc(C3CCOCC3)c([C@@H]3CCCN3)c2)cc1C1=CCS(=O)(=O)CC1 [Co. 55]	95.5	> 10000
Nc1ncc(-c2ccc(C3CCOCC3)c([C@@H]3CC4(CC4)CN3)c2)cc1-c1ccncc1 (single isomer, unassigned) [Co. 8a]	6.31	347
N#Cc1ccc(-c2cnc(N)c(-c3ccnc(F)c3)c2)cc1[C@@H]1CCCN1 [Co. 60]	251	> 10000
CN(C)Cc1cc(-c2cnc(N)c(-c3ccncc3)c2)ccc1C1CCOCC1 [Co. 73]	42.7	1550
C[C@@H]1CN[C@@H](c2cc(-c3cnc(N)c(-c4ccnc(F)c4)c3)ccc2C2CCOCC2)CO1 [Co. 92]	1950	> 10000
Nc1ncc(-c2ccc(C3CCOCC3)c([C@@H]3CCCN3)c2)cc1-c1ccncc1F [Co. 28]	10.2	316
C[C@H]1CCN[C@@H]1c1cc(-c2cnc(N)c(-c3ccncc3)c2)ccc1C1CCOCC1 (racemic) [Co. 9]	42.7	2140
Nc1ncc(-c2ccc(C3CCOCC3)c([C@@H]3CSCCN3)c2)cc1-c1ccnc(F)c1 (single isomer, unassigned) [Co. 103a]	7.76	1950
C[C@@H]1COC[C@H](c2cc(-c3cnc(N)c(-c4ccncc4)c3)ccc2C2CCOCC2)N1 (single isomer, unassigned) [Co. 83b]	5750	
Nc1ncc(-c2ccc(C3CC4(COC4)C3)c([C@@H]3CCCN3)c2)cc1-c1ccnc(F)c1 [Co. 52]	38.9	851
C[C@H]1CN[C@H](c2cc(-c3cnc(N)c(Br)c3)ccc2C2CCOCC2)CO1 [Co. 79]	25.7	794
Cc1cc(-c2cc(-c3ccc(C4CCOCC4)c(CN(C)C)c3)cnc2N)ccn1 [Co. 70]	115	4370
Nc1ncc(-c2ccc(C3CCOCC3)c([C@@H]3CCCN3)c2)nc1C(F)(F)F [Co. 53]	15.8	977
Nc1ncc(-c2ccc(C3CCOCC3)c([C@@H]3CCCN3)c2)cc1-c1ccc(F)cc1 [Co. 62]	31.6	1070
[2H]c1cc(-c2cc(-c3ccc(C4CCOCC4)c([C@@H]4CCCN4)c3)cnc2N)ccn1 [Co. 64]	17	380
Nc1ncc(-c2cnc(N3CCOCC3)c(C3CCCN3)c2)cc1-c1ccncc1 (stereo not drawn) [Co. 12]	112	7410
CS(=O)(=O)N1CCC(c2ccc(-c3cnc(N)c(-c4ccnc(F)c4)c3)cc2[C@@H]2CCCN2)CC1 [Co. 98]	26.3	724
Cc1cnccc1-c1cc(-c2ccc(C3CCOCC3)c(CN(C)C)c2)cnc1N [Co. 69]	316	
Nc1ncc(-c2ccc(C3CCOCC3)c([C@H]3CC4(CC4)CN3)c2)cc1-c1ccnc(F)c1 (single isomer, unassigned) [Compound 5b]	912	
